Results as given in US9855268B2, “Triazolo[4,5-d]pyrimidine derivatives” (Merck Patent GmbH, priority 2013, dated 2018).
Where a name gives a salt, the structure may show the parent alone.

Target: GCN2 (Homo sapiens, UniProt Q9P2K8)
Assay: GCN2 enzyme assay (TR-FRET Lanthascreen, GFP-eIF2alpha phosphorylation)
Format: biochemical
Details: 10 μM ATP, 80 nM GFP-eIF2a, 30 nM GCN2
Text: GCN2: Assay Principle & Conditions
This assay can quantificate the activity of the serin kinase GCN2 (general control non-derepressible-2).
This kinase is involved in the stress metabolism of cells. It is activated upon starvation (amino acid depletion). Its natural substrate is eIF2a (eukaryotic initiation factor 2 alpha subunit), a translation factor, which gets activated (phosphorylated) by GCN2 in case of an amino acid bottleneck in the cells. This in turn leads to a halt of the protein synthesis. Inhibition of GCN2 results in stopping this mechanism: The cell can not stop protein production upon “starvation” stress.
The assay is run in two steps: the enzymatic reaction and the detection step. In the first step GCN2 is incubated with 10 μM ATP and 80 nM of the GFP-labelled substrate eIF2alpha at room temperature.
The enzymatic reaction is stopped by addition of EDTA. The amount of phosphorylated eIF2alpha is determined by TR-FRET (Lanthascreen): A complex is formed consisting of antibody and GFP labelled phospho-eIF2a, which allows a FRET upon exitation at 340 nm.
Final Concentrations in the Enzymatic Reaction

Sequence of GCN2 (Q9P2K8 whole entry, species assumed): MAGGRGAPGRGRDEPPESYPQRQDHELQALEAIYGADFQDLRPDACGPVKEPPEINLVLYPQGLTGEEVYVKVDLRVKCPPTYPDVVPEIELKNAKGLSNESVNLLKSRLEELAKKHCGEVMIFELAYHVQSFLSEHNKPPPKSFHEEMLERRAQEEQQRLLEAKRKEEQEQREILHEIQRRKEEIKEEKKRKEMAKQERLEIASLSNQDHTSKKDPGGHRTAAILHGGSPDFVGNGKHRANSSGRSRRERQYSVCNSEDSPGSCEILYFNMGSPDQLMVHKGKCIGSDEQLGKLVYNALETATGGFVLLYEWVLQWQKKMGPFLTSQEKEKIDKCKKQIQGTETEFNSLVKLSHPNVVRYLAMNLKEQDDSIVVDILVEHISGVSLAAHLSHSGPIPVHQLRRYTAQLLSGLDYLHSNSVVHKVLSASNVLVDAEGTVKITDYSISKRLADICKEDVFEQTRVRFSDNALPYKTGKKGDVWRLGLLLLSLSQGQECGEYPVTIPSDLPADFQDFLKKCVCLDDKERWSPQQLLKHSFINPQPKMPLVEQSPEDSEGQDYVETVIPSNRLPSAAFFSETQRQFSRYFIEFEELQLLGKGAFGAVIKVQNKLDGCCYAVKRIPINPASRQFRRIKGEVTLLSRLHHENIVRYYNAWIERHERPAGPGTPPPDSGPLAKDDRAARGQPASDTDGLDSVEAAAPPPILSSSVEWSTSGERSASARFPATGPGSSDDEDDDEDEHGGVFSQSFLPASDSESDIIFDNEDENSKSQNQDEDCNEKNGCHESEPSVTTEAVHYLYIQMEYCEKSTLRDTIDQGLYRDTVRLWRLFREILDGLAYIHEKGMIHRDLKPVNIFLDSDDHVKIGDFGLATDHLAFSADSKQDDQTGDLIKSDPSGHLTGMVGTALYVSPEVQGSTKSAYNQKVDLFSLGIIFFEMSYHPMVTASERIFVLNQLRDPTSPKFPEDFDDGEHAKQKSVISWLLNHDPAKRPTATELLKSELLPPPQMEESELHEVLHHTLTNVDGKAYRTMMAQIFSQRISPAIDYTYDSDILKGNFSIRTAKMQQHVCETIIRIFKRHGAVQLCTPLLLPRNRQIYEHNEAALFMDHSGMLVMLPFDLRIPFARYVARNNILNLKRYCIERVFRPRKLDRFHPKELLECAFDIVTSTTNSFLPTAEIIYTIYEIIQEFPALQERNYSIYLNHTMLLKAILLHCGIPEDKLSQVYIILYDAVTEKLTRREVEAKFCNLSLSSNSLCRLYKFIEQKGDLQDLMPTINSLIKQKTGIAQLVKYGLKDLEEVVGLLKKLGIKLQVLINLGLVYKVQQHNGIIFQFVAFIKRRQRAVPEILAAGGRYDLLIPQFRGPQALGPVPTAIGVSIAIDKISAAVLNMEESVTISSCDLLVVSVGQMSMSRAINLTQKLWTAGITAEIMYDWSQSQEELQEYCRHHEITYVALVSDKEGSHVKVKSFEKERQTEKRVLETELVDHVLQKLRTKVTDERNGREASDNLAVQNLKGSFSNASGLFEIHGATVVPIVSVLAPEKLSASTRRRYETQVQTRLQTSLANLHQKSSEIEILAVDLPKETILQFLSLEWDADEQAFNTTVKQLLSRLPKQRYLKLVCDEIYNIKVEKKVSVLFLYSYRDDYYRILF

N[C@H]1CC[C@H](Nc2ncc3nnn(-c4ccc(I)cc4)c3n2)CC1 [A53, N-[3-(4-iodo-phenyl)-3H-[1,2,3]triazolo[4,5-d]pyrimidin-5-yl]-cyclohexane-1,4-diamine] and N[C@H]1CC[C@H](Nc2ncc3nnn(-c4ccc(F)cc4)c3n2)CC1 [A75, N-[3-(4-fluoro-phenyl)-3H-[1,2,3]triazolo[4,5-d]pyrimidin-5-yl]-(trans)-cyclohexane-1,4-diamine] cannot be ordered by IC50: < 1000 nM for the first, < 1000 nM for the second.

CCn1cc(-c2ccc(-n3nnc4cnc(N[C@H]5CC[C@H](N)CC5)nc43)cc2)cn1 [A54, N-{3-[4-(1-ethyl-1H-pyrazol-4-yl)-phenyl]-3H-[1,2,3]triazolo[4,5-d]pyrimidin-5-yl}-(trans)-cyclohexane-1,4-diamine trifluoroacetate] and N[C@H]1CC[C@H](Nc2ncc3nnn(-c4ccc(N5CCCC5=O)cc4)c3n2)CC1 [A71, 1-{4-[5-((trans)-4-amino-cyclohexylamino)-[1,2,3]triazolo[4,5-d]pyrimidin-3-yl]-phenyl}-pyrrolidin-2-one] cannot be ordered by IC50: < 1000 nM for the first, < 1000 nM for the second.

Compared with COc1ccc(-n2nnc3cnc(NCCCN4CCCC4)nc32)cc1 [A61, [3-(4-methoxy-phenyl)-3H-[1,2,3]triazolo[4,5-d]pyrimidin-5-yl]-(3-pyrrolidin-1-yl-propyl)-amine], COc1ccc(-n2nnc3cnc(NC4CCN(CCN5CCCC5)CC4)nc32)cc1 [A86, [3-(4-methoxy-phenyl)-3H-[1,2,3]triazolo[4,5-d]pyrimidin-5-yl]-[1-(2-pyrrolidin-1-yl-ethyl)-piperidin-4-yl]-amine] is lower in IC50: 5000 to 10000 nM for the first, < 1000 nM for the second.

First: COc1ccc(-n2nnc3cnc(NC4CN(C(=O)CN(C)C)C4)nc32)cc1 [A62, 2-dimethylamino-1-{3-[3-(4-methoxy-phenyl)-3H-[1,2,3]triazolo[4,5-d]pyrimidin-5-ylamino]-azetidin-1-yl}-ethanone]
Second: COc1ccc(-n2nnc3cnc(N[C@@H]4CCN(C(=O)CN(C)C)C4)nc32)cc1 [A83, 2-dimethylamino-1-{(R)-3-[3-(4-methoxy-phenyl)-3H-[1,2,3]triazolo[4,5-d]-pyrimidin-5-ylamino]-pyrrolidin-1-yl}-ethanone formate]
The IC50 of the first is higher: 1000 to 5000 nM for the first, < 1000 nM for the second. The second is the more potent here.

COc1ccc(-n2nnc3cnc(NC4CN(C(=O)CCN(C)C)C4)nc32)cc1 [A63, 3-dimethylamino-1-{3-[3-(4-methoxy-phenyl)-3H-[1,2,3]triazolo[4,5-d]pyrimidin-5-ylamino]-azetidin-1-yl}-propan-1-one] and COc1ccc(-n2nnc3cnc(N[C@@H]4CCN(C(=O)CCN(C)C)C4)nc32)cc1 [A85, 3-dimethylamino-1-{(R)-3-[3-(4-methoxy-phenyl)-3H-[1,2,3]triazolo[4,5-d]-pyrimidin-5-ylamino]-pyrrolidin-1-yl}-propan-1-one formate] cannot be ordered by IC50: < 1000 nM for the first, < 1000 nM for the second.

First: COc1ccc(-n2nnc3cnc(N[C@@H]4CCN(C(=O)OC(C)(C)C)C4)nc32)cc1 [A65, (R)-3-[3-(4-methoxy-phenyl)-3H-[1,2,3]triazolo[4,5-d]pyrimidin-5-ylamino]-pyrrolidine-1-carboxylic acid tert-butyl ester]
Second: COc1ccc(-n2nnc3cnc(N[C@H]4CCN(C(=O)OC(C)(C)C)C4)nc32)cc1 [A66, (S)-3-[3-(4-methoxy-phenyl)-3H-[1,2,3]triazolo[4,5-d]pyrimidin-5-ylamino]-pyrrolidine-1-carboxylic acid tert-butyl ester]
The IC50 of the first is lower: 1000 to 5000 nM for the first, 5000 to 10000 nM for the second.

COCCOc1ccc(-n2nnc3cnc(NCCCc4ccccn4)nc32)cc1 [A68, {3-[4-(2-methoxy-ethoxy)-phenyl]-3H-[1,2,3]triazolo[4,5-d]pyrimidin-5-yl}-(3-pyridin-2-yl-propyl)-amine] and COc1ccc(-n2nnc3cnc(NCCCOCCCN)nc32)cc1 [A76, [3-(3-amino-propoxy)-propyl]-[3-(4-methoxy-phenyl)-3H-[1,2,3]triazolo[4,5-d]pyrimidin-5-yl]-amine formate] cannot be ordered by IC50: < 1000 nM for the first, < 1000 nM for the second.

First: COc1ccc(-n2nnc3cnc(N[C@@H]4CCNC4)nc32)cc1 [A69, [3-(4-methoxy-phenyl)-3H-[1,2,3]triazolo[4,5-d]pyrimidin-5-yl]-(R)-pyrrolidin-3-yl-amine hydrochloride]
Second: COc1ccc(-n2nnc3cnc(N[C@H]4CCNC4)nc32)cc1 [A77, [3-(4-methoxy-phenyl)-3H-[1,2,3]triazolo[4,5-d]pyrimidin-5-yl]-(S)-pyrrolidin-3-yl-amine hydrochloride]
The IC50 of the first is lower: 1000 to 5000 nM for the first, 5000 to 10000 nM for the second.

COc1ccc(-n2nnc3cnc(N[C@H]4CC[C@H](CCO)CC4)nc32)cc1 [A72, trans-2-{4-[3-(4-methoxy-phenyl)-3H-[1,2,3]triazolo[4,5-d]pyrimidin-5-ylamino]-cyclohexyl}-ethanol] and COc1ccc(-n2nnc3cnc(N[C@H]4CC[C@@H](CCO)CC4)nc32)cc1 [A73, cis-2-{4-[3-(4-methoxy-phenyl)-3H-[1,2,3]triazolo[4,5-d]pyrimidin-5-ylamino]-cyclohexyl}-ethanol] cannot be ordered by IC50: < 1000 nM for the first, < 1000 nM for the second.

Compared with COc1ccc(-n2nnc3cnc(NCCOCCN)nc32)cc1 [A74, [2-(2-amino-ethoxy)-ethyl]-[3-(4-methoxy-phenyl)-3H-[1,2,3]triazolo[4,5-d]-pyrimidin-5-yl]-amine formate], COc1ccc(-n2nnc3cnc(N[C@@H]4CCOC4)nc32)cc1 [A98, [3-(4-methoxy-phenyl)-3H-[1,2,3]triazolo[4,5-d]pyrimidin-5-yl]-(R)-tetrahydrofuran-3-yl-amine] is lower in IC50: 1000 to 5000 nM for the first, < 1000 nM for the second. The second is the more potent here.

First: COc1ccc(-n2nnc3cnc(NC4CCN(CCN5CCOCC5)CC4)nc32)cc1 [A78, [3-(4-methoxy-phenyl)-3H-[1,2,3]triazolo[4,5-d]pyrimidin-5-yl]-[1-(2-morpholin-4-yl-ethyl)-piperidin-4-yl]-amine]
Second: N[C@H]1CC[C@H](Nc2ncc3nnn(-c4ccc(OCCN5CCOCC5)cc4)c3n2)CC1 [A95, trans-N-{3-[4-(2-morpholin-4-yl-ethoxy)-phenyl]-3H-[1,2,3]triazolo[4,5-d]pyrimidin-5-yl}-cyclohexane-1,4-diamine]
The IC50 of the first is higher: 1000 to 5000 nM for the first, < 1000 nM for the second. The second is the more potent here.

COc1ccc(-n2nnc3cnc(N[C@@H]4CC[C@H](C(=O)O)C4)nc32)cc1 [A79, (1S,3R)-3-[3-(4-methoxy-phenyl)-3H-[1,2,3]triazolo[4,5-d]pyrimidin-5-ylamino]-cyclopentanecarboxylic acid] and COC(=O)[C@H]1CC[C@H](Nc2ncc3nnn(-c4ccc(OC)cc4)c3n2)C1 [A110, (1S,3S)-3-[3-(4-methoxy-phenyl)-3H-[1,2,3]triazolo[4,5-d]pyrimidin-5-ylamino]-cyclopentanecarboxylic acid methyl ester] cannot be ordered by IC50: < 1000 nM for the first, < 1000 nM for the second.

First: COc1ccc(-n2nnc3cnc(NC4CCN(c5ccncc5)CC4)nc32)cc1 [A82, [3-(4-methoxy-phenyl)-3H-[1,2,3]triazolo[4,5-d]pyrimidin-5-yl]-(3,4,5,6-tetrahydro-2H-[1,4′]bipyridinyl-4-yl)-amine]
Second: COc1ccc(-n2nnc3cnc(NC4CCNC(=O)C4)nc32)cc1 (stereo not shown) [A87, 4-[3-(4-methoxy-phenyl)-3H-[1,2,3]triazolo[4,5-d]pyrimidin-5-ylamino]-piperidin-2-one]
The IC50 of the first is lower: < 1000 nM for the first, 1000 to 5000 nM for the second. The first is the more potent here.

First: COc1ccc(-n2nnc3cnc(N[C@H]4CC[C@@H](NC(=O)OCc5ccccc5)C4)nc32)cc1 [A89, {(1R,3S)-3-[3-(4-methoxy-phenyl)-3H-[1,2,3]triazolo[4,5-d]pyrimidin-5-ylamino]-cyclopentyl}-carbamic acid benzyl ester]
Second: COC(=O)[C@@H]1CC[C@@H](Nc2ncc3nnn(-c4ccc(OC)cc4)c3n2)C1 [A113, (1R,3R)-3-[3-(4-methoxy-phenyl)-3H-[1,2,3]triazolo[4,5-d]pyrimidin-5-ylamino]-cyclopentanecarboxylic acid methyl ester]
The IC50 of the first is higher: 1000 to 5000 nM for the first, < 1000 nM for the second.

Compared with COc1ccc(-n2nnc3cnc(N[C@@H]4CCN(C(=O)Cn5cccn5)C4)nc32)cc1 [A90, 1-{(R)-3-[3-(4-methoxy-phenyl)-3H-[1,2,3]triazolo[4,5-d]pyrimidin-5-ylamino]-pyrrolidin-1-yl}-2-pyrazol-1-yl-ethanone], COc1ccc(-n2nnc3cnc(N[C@H]4CCN(C(=O)CN(C)C)C4)nc32)cc1 [A91, 2-dimethylamino-1-{(S)-3-[3-(4-methoxy-phenyl)-3H-[1,2,3]triazolo[4,5-d]-pyrimidin-5-ylamino]-pyrrolidin-1-yl}-ethanone formate] is higher in IC50: < 1000 nM for the first, 1000 to 5000 nM for the second.

First: COc1ccc(-n2nnc3cnc(N[C@H]4CCN(C(=O)CCN(C)C)C4)nc32)cc1 [A92, 3-dimethylamino-1-{(S)-3-[3-(4-methoxy-phenyl)-3H-[1,2,3]triazolo[4,5-d]-pyrimidin-5-ylamino]-pyrrolidin-1-yl}-propan-1-one formate]
Second: COc1ccc(-n2nnc3cnc(N[C@@H]4CC[C@H](C(=O)N5CCN(C)CC5)C4)nc32)cc1 [A97, {(1S,3R)-3-[3-(4-methoxy-phenyl)-3H-[1,2,3]triazolo[4,5-d]pyrimidin-5-ylamino]-cyclopentyl}-(4-methyl-piperazin-1-yl)-methanone]
The IC50 of the first is higher: 1000 to 5000 nM for the first, < 1000 nM for the second.

First: N[C@H]1CC[C@H](Nc2ncc3nnn(-c4ccc(N5CCOCC5)cn4)c3n2)CC1 [A96, trans-N-[3-(5-morpholin-4-yl-pyridin-2-yl)-3H-[1,2,3]triazolo[4,5-d]pyrimidin-5-yl]-cyclohexane-1,4-diamine]
Second: Cc1ccc2cc(-n3nnc4cnc(N[C@@H]5CCNC5)nc43)ccc2n1 [A126, [3-(2-methyl-quinolin-6-yl)-3H-[1,2,3]triazolo[4,5-d]pyrimidin-5-yl]-(R)-pyrrolidin-3-yl-amine]
The IC50 of the first is higher: 1000 to 5000 nM for the first, < 1000 nM for the second. The second is the more potent here.
